Laboratory results published in PMC6763016 (PLoS ONE, 2019).

Biological target: T1, 5-HT1A autoreceptor (5-HT1AAR) of Tph2-/- mouse dorsal raphe serotonergic neurons (Mus musculus, UniProt Q64264)
T1 construct: gene Htr1a
T1 sequence (Q64264 1-421): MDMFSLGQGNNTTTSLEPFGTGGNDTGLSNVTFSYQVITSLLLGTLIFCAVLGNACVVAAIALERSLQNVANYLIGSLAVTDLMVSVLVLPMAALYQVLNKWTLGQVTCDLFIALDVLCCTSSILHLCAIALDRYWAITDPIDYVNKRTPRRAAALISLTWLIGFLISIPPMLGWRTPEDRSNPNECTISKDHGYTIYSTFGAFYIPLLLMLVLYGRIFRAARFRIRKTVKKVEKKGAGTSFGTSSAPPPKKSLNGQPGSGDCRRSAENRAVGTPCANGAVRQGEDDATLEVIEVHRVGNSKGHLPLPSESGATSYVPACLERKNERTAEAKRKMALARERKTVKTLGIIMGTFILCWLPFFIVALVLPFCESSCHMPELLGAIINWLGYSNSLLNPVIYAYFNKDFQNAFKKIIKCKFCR
Settings: agonist; 10 μM phenylephrine and synaptic blockers present; 34-36 °C; four of nine neurons (those silenced by 1 μM)

- % decrease of firing at 1 μM: 96.1 ± 7.3%
Structure (SMILES): O=c1n(CCCN2CCN(c3cccc(Cl)c3)CC2)nc2ccccn12 [Trazodone]
